Test results reported in patent US9113629B2, “4-amino-6-(4-substituted-phenyl)-picolinates and 6-amino-2-(4-substituted-phenyl)-pyrimidine-4-carboxylates and their use as herbicides” (DOW AGROSCIENCES LLC, priority 2013, dated 2015).
Where two headings read alike, the source gives them in different places.

Experiments:
[1] = tested on: Key Broadleaf Weed and Crop Species; test: Post-emergent Test II herbicidal activity (Table 5); type: in vivo; conditions: post-emergence, 336 h, 14 days after application; for pest or weed control at 70 g/ha: application rate 70 g ai/ha
In short: (§1)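 Greenhouse post-emergent assay: seedlings (first/second true leaf) in Metro-Mix 360 were sprayed at 187 L/ha at a top rate plus twofold dilutions down to 1/16×; solvent-blank controls were included. Percent visual injury was read at 14 d.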

[2] = tested on: Key Grass and Sedge Weeds as well as Grass Crops; test: Post-emergent Test II herbicidal activity (Table 6); type: in vivo; conditions: post-emergence, 336 h; for pest or weed control at 70 g/ha: 70 g ai/ha
In short: as §1

[3] = ABUTH: velvetleaf (Abutilon theophrasti), read-out: Visual Growth Reduction (%) 14 Days After Application, ABUTH
[4] = ABUTH: velvetleaf (Abutilon theophrasti), application rate 140 g ai/ha, read-out: Visual Growth Reduction (%) 14 Days After Application, ABUTH
[5] = AMARE: redroot pigweed (Amaranthus retroflexus), read-out: Visual Growth Reduction (%) 14 Days After Application, AMARE
[6] = AMARE: redroot pigweed (Amaranthus retroflexus), application rate 140 g ai/ha, read-out: Visual Growth Reduction (%) 14 Days After Application, AMARE
[7] = BRSNN: oilseed-rape, canola (Brassica napus), read-out: Visual Growth Reduction (%) 14 Days After Application, BRSNN
[8] = BRSNN: oilseed-rape, canola (Brassica napus), application rate 140 g ai/ha, read-out: Visual Growth Reduction (%) 14 Days After Application, BRSNN
[9] = CHEAL: lambsquarters (Chenopodium album), read-out: Visual Growth Reduction (%) 14 Days After Application, CHEAL
[10] = CHEAL: lambsquarters (Chenopodium album), application rate 140 g ai/ha, read-out: Visual Growth Reduction (%) 14 Days After Application, CHEAL
[11] = EPHHL: wild poinsettia (Euphorbia heterophylla), read-out: Visual Growth Reduction (%) 14 Days After Application, EPHHL
[12] = EPHHL: wild poinsettia (Euphorbia heterophylla), application rate 140 g ai/ha, read-out: Visual Growth Reduction (%) 14 Days After Application, EPHHL
[13] = HELAN: sunflower (Helianthus annuus), read-out: Visual Growth Reduction (%) 14 Days After Application, HELAN
[14] = HELAN: sunflower (Helianthus annuus), application rate 140 g ai/ha, read-out: Visual Growth Reduction (%) 14 Days After Application, HELAN
[15] = VIOTR: wild pansy (Viola tricolor), read-out: Visual Growth Reduction (%) 14 Days After Application, VIOTR
[16] = VIOTR: wild pansy (Viola tricolor), application rate 140 g ai/ha, read-out: Visual Growth Reduction (%) 14 Days After Application, VIOTR
[17] = CYPES: yellow nutsedge (Cyperus esculentus), read-out: Visual Growth Reduction (%) 14 Days After Application, CYPES
[18] = CYPES: yellow nutsedge (Cyperus esculentus), 140 g ai/ha, read-out: Visual Growth Reduction (%) 14 Days After Application, CYPES
[19] = DIGSA: crabgrass (Digitaria sanguinalis), read-out: Visual Growth Reduction (%) 14 Days After Application, DIGSA
[20] = DIGSA: crabgrass (Digitaria sanguinalis), 140 g ai/ha, read-out: Visual Growth Reduction (%) 14 Days After Application, DIGSA
[21] = ECHCG: barnyardgrass (Echinochloa crus-galli), read-out: Visual Growth Reduction (%) 14 Days After Application, ECHCG
[22] = ECHCG: barnyardgrass (Echinochloa crus-galli), 140 g ai/ha, read-out: Visual Growth Reduction (%) 14 Days After Application, ECHCG
[23] = ORYSA: rice (Oryza sativa), crop, read-out: Visual Growth Reduction (%) 14 Days After Application, ORYSA
[24] = ORYSA: rice (Oryza sativa), crop, 140 g ai/ha, read-out: Visual Growth Reduction (%) 14 Days After Application, ORYSA
[25] = SETFA: giant foxtail (Setaria faberi), read-out: Visual Growth Reduction (%) 14 Days After Application, SETFA
[26] = SETFA: giant foxtail (Setaria faberi), 140 g ai/ha, read-out: Visual Growth Reduction (%) 14 Days After Application, SETFA
[27] = SORVU: grain sorghum (Sorghum vulgare), read-out: Visual Growth Reduction (%) 14 Days After Application, SORVU
[28] = SORVU: grain sorghum (Sorghum vulgare), 140 g ai/ha, read-out: Visual Growth Reduction (%) 14 Days After Application, SORVU
[29] = TRZSS (wheat, Triticum aestivum), crop, read-out: Visual Growth Reduction (%) 14 Days After Application, TRZSS
[30] = TRZSS (wheat, Triticum aestivum), crop, 140 g ai/ha, read-out: Visual Growth Reduction (%) 14 Days After Application, TRZSS
[31] = ZEAMX: maize, corn (Zea mays), crop, read-out: Visual Growth Reduction (%) 14 Days After Application, ZEAMX
[32] = ZEAMX: maize, corn (Zea mays), crop, 140 g ai/ha, read-out: Visual Growth Reduction (%) 14 Days After Application, ZEAMX

Row | SMILES | pest or weed control at 70 g/ha [1, 3] | pest or weed control at 140 g/ha [1, 4] | pest or weed control at 70 g/ha [1, 5] | pest or weed control at 140 g/ha [1, 6] | pest or weed control at 70 g/ha [1, 7] | pest or weed control at 140 g/ha [1, 8] | pest or weed control at 70 g/ha [1, 9] | pest or weed control at 140 g/ha [1, 10] | pest or weed control at 70 g/ha [1, 11] | pest or weed control at 140 g/ha [1, 12] | pest or weed control at 70 g/ha [1, 13] | pest or weed control at 140 g/ha [1, 14] | pest or weed control at 70 g/ha [1, 15] | pest or weed control at 140 g/ha [1, 16] | pest or weed control at 70 g/ha [2, 17] | pest or weed control at 140 g/ha [2, 18] | pest or weed control at 70 g/ha [2, 19] | pest or weed control at 140 g/ha [2, 20] | pest or weed control at 70 g/ha [2, 21] | melting point | other results
1 | COC(=O)c1nc(-c2ccc(C#N)c(F)c2F)c(F)c(N)c1Cl [Compound 160] | 30 to 44% | 45 to 59% | 85 to 94% | 95 to 100% | 0 to 29% | 0 to 29% | 60 to 74% | 75 to 84% | 45 to 59% | 60 to 74% | 85 to 94% | 95 to 100% | 0 to 29% | 0 to 29% | 0 to 29% | 0 to 29% | 0 to 29% | 0 to 29% | 0 to 29% | 163 to 164 °C | pest or weed control at 140 g/ha [2, 22]: 0 to 29%; pest or weed control at 70 g/ha [2, 23]: 0 to 29%; pest or weed control at 140 g/ha [2, 24]: 0 to 29%; pest or weed control at 70 g/ha [2, 25]: 0 to 29%; pest or weed control at 140 g/ha [2, 26]: 0 to 29%; pest or weed control at 70 g/ha [2, 27]: 0 to 29%; pest or weed control at 140 g/ha [2, 28]: 0 to 29%; pest or weed control at 70 g/ha [2, 29]: 0 to 29%; pest or weed control at 140 g/ha [2, 30]: 0 to 29%; pest or weed control at 70 g/ha [2, 31]: 0 to 29%; pest or weed control at 140 g/ha [2, 32]: 0 to 29%
2 | C#Cc1ccc(-c2nc(N)c(OC)c(C(=O)O)n2)cc1 [Compound 28] |  |  |  |  |  |  |  |  |  |  |  |  |  |  |  |  |  |  |  | 170.7 to 171.3 °C | pest or weed control at 140 g/ha ([1]; ABUTH: velvetleaf (Abutilon theophrasti), 140 g ai/ha, post-emergent, read-out: Visual Growth Reduction (%) 14 Days After Application ABUTH): 0 to 29%; pest or weed control at 140 g/ha ([1]; AMARE: redroot pigweed (Amaranthus retroflexus), 140 g ai/ha, post-emergent, read-out: Visual Growth Reduction (%) 14 Days After Application AMARE): 95 to 100%; pest or weed control at 140 g/ha ([1]; BRSNN: oilseed-rape, canola (Brassica napus), 140 g ai/ha, post-emergent, read-out: Visual Growth Reduction (%) 14 Days After Application BRSNN): 0 to 29%; pest or weed control at 140 g/ha ([1]; CHEAL: lambsquarters (Chenopodium album), 140 g ai/ha, post-emergent, read-out: Visual Growth Reduction (%) 14 Days After Application CHEAL): 95 to 100%; pest or weed control at 140 g/ha ([1]; EPHHL: wild poinsettia (Euphorbia heterophylla), 140 g ai/ha, post-emergent, read-out: Visual Growth Reduction (%) 14 Days After Application EPHHL): 95 to 100%; pest or weed control at 140 g/ha ([1]; HELAN: sunflower (Helianthus annuus), 140 g ai/ha, post-emergent, read-out: Visual Growth Reduction (%) 14 Days After Application HELAN): 85 to 94%; pest or weed control at 140 g/ha ([1]; VIOTR: wild pansy (Viola tricolor), 140 g ai/ha, post-emergent, read-out: Visual Growth Reduction (%) 14 Days After Application VIOTR): 0 to 29%; pest or weed control at 140 g/ha ([2]; Triticum aestivum, TRZSS (wheat), application rate 140 g ai/ha, read-out: Visual Growth Reduction (%) 14 Days After Application, TRZSS): 0 to 29%; pest or weed control at 140 g/ha ([2]; CYPES: yellow nutsedge (Cyperus esculentus), application rate 140 g ai/ha, read-out: Visual Growth Reduction (%) 14 Days After Application, CYPES): 0 to 29%; pest or weed control at 140 g/ha ([2]; DIGSA: crabgrass (Digitaria sanguinalis), application rate 140 g ai/ha, read-out: Visual Growth Reduction (%) 14 Days After Application, DIGSA): 60 to 74%; pest or weed control at 140 g/ha ([2]; ECHCG: barnyardgrass (Echinochloa crus-galli), application rate 140 g ai/ha, read-out: Visual Growth Reduction (%) 14 Days After Application, ECHCG): 0 to 29%; pest or weed control at 140 g/ha ([2]; ORYSA: rice (Oryza sativa), application rate 140 g ai/ha, read-out: Visual Growth Reduction (%) 14 Days After Application, ORYSA): 0 to 29%; pest or weed control at 140 g/ha ([2]; SETFA: giant foxtail (Setaria faberi), application rate 140 g ai/ha, read-out: Visual Growth Reduction (%) 14 Days After Application, SETFA): 45 to 59%; pest or weed control at 140 g/ha ([2]; SORVU: grain sorghum (Sorghum vulgare), application rate 140 g ai/ha, read-out: Visual Growth Reduction (%) 14 Days After Application, SORVU): 0 to 29%; pest or weed control at 140 g/ha ([2]; ZEAMX: maize, corn (Zea mays), application rate 140 g ai/ha, read-out: Visual Growth Reduction (%) 14 Days After Application, ZEAMX): 60 to 74%
3 | COC(=O)c1nc(-c2ccc(F)cc2)c(F)c(N)c1Cl [Compound 204] | 95 to 100% | 95 to 100% | 95 to 100% | 95 to 100% | 85 to 94% | 95 to 100% | 95 to 100% | 95 to 100% | 95 to 100% | 95 to 100% | 95 to 100% | 95 to 100% | 75 to 84% | 95 to 100% | 85 to 94% | 85 to 94% | 60 to 74% | 60 to 74% | 95 to 100% | 131 °C | pest or weed control at 140 g/ha [2, 22]: 95 to 100%; pest or weed control at 70 g/ha [2, 23]: 0 to 29%; pest or weed control at 140 g/ha [2, 24]: 0 to 29%; pest or weed control at 70 g/ha [2, 25]: 0 to 29%; pest or weed control at 140 g/ha [2, 26]: 45 to 59%; pest or weed control at 70 g/ha [2, 27]: 75 to 84%; pest or weed control at 140 g/ha [2, 28]: 85 to 94%; pest or weed control at 70 g/ha [2, 29]: 45 to 59%; pest or weed control at 140 g/ha [2, 30]: 60 to 74%; pest or weed control at 70 g/ha [2, 31]: 75 to 84%; pest or weed control at 140 g/ha [2, 32]: 75 to 84%
